Laboratory results taken from EP4755886A1 (Chengdu Chipscreen Pharmaceutical Ltd., priority 2023, dated 2025).

Key:
MTAP^-/- HCT-116 cells = assay: Cell proliferation (MTS), MTAP-/- HCT-116; assay type: cell-based, human; conditions: for Selectivity: HCT116 WT IC50 relative to HCT116 MTAP-/- IC50; for IC50: Homo sapiens, 240 h, MTAP-/- HCT-116, 10 days with compound, MTS reading, read-out: IC50 HCT116 MTAP-/-
From the text: The colon cancer cell strain HCT-116 (purchased from Nanjing Cobioer) was co-transfected with the gene editing tool CRISPR/Cas9 and sgRNA, and the MTAP^-/- HCT-116 cell strain with biallelic inactivation of MTAP was obtained by assays such as Western Blotting and Sanger sequencing. The MTAP^-/- HCT-116 cell strain was used for compound selectivity screening and evaluation based on the synergistic mechanism of MTAP deletion and PRMT5, including a symmetric dimethylarginine (SDMA) level test, a cell proliferation test, and the like.
On day 0, MTAP^-/- HCT-116 cells or wild-type HCT-116 cells were added to a 96-well cell culture plate (Corning, 3599) at 100 cells/well, and the plate was incubated in an incubator at 37 °C with 5% CO2. The compound was diluted in a 3-fold gradient with DMSO (Sigma, D5879) (initial concentration: 20 µM, 3-fold dilution, 8 concentration points in total). On day 1, the compound was diluted to multiple concentration points, and the cells were treated separately and incubated in the incubator at 37 °C with 5% CO2 for another 10 days. On Day 11, 20 µL of MTS (CellTiter 96® AQueous One Solution Cell Proliferation Assay) (Promega, G3581) was added to each well. […] In the formula, Y represents the inhibition rate, X represents the logarithm of the compound concentration, Top represents the maximum response (the inhibition rate at the maximum compound concentration), Bottom represents the baseline response (the inhibition rate where the compound concentration was 0), Hill Slope represents the slope of the IC50 curve, and IC50 represents the half maximal inhibitory concentration.

wild-type HCT-116 cells = assay: Cell proliferation (MTS), wild-type HCT-116; assay type: cell-based; conditions: Homo sapiens, 240 h; wild-type HCT-116, 10 days with compound, MTS reading; read-out: IC50 HCT116 WT
Procedure: MTAP^-/- HCT-116 and wild-type HCT-116 cell strains were cultured in complete medium McCoy's 5A (Gibco, 16600082)/10% FBS (Gibco, 10099141C)/1% p/s (Gibco, 15140122) to evaluate the enhanced inhibitory effect of the compounds against the proliferation selectivity of MTAP^-/- HCT-116 cells. On day 0, MTAP^-/- HCT-116 cells or wild-type HCT-116 cells were added to a 96-well cell culture plate (Corning, 3599) at 100 cells/well, and the plate was incubated in an incubator at 37 °C with 5% CO2. The compound was diluted in a 3-fold gradient with DMSO (Sigma, D5879) (initial concentration: 20 µM, 3-fold dilution, 8 concentration points in total). On day 1, the compound was diluted to multiple concentration points, and the cells were treated separately and incubated in the incubator at 37 °C with 5% CO2 for another 10 days. On Day 11, 20 µL of MTS (CellTiter 96® AQueous One Solution Cell Proliferation Assay) (Promega, G3581) was added to each well. […] In the formula, Y represents the inhibition rate, X represents the logarithm of the compound concentration, Top represents the maximum response (the inhibition rate at the maximum compound concentration), Bottom represents the baseline response (the inhibition rate where the compound concentration was 0), Hill Slope represents the slope of the IC50 curve, and IC50 represents the half maximal inhibitory concentration. Table 1. IC50 (µM)

| Structure (SMILES) | Selectivity (MTAP^-/- HCT-116 cells) | IC50 (MTAP^-/- HCT-116 cells) [nM] | IC50 (wild-type HCT-116 cells) [nM] |
| --- | --- | --- | --- |
| CN(C(=O)c1cc2c(cc1Cl)nc(N)c1cnn(C)c12)C1COc2cc(C#Cc3cnn(C)c3)ccc21 (stereo not drawn) [Compound 9, 4-amino-7-chloro-N,1-dimethyl-N-(6-((1-methyl-1H-pyrazol-4-yl)ethynyl)-2,3-dihydrobenzofuran-3-yl)-1H-pyrazolo[4,3-c]quinoline-8-carboxamide] | 109 | 0.9 | 97.7 |
| Cc1cc2nc(N)c3cnn(C)c3c2cc1C(=O)N(C)C1COc2cc(C#Cc3cnn(C)c3)ccc21 (stereo not drawn) [Compound 10, 4-amino-N,1,7-trimethyl-N-(6-((1-methyl-1H-pyrazol-4-yl)ethynyl)-2,3-dihydrobenzofuran-3-yl)-1H-pyrazolo[4,3-c]quinoline-8-carboxamide] | 81 | 2 | 162 |
| Cc1cc2nc(N)c3cnn(C)c3c2cc1C(=O)N(C)[C@@H]1COc2cc(C#Cc3cnn(C)c3)ccc21 [Compound 10A, (S)-4-amino-N,1,7-trimethyl-N-(6-((1-methyl-1H-pyrazol-4-yl)ethynyl)-2,3-dihydrobenzofuran-3-yl)-1H-pyrazolo[4,3-c]quinoline-8-carboxamide] | 56 | 0.5 | 28 |
| Cc1cc2nc(N)c3cnn(C)c3c2cc1C(=O)N(C)C1COc2cc(C#Cc3cnn(C4CC4)c3)ccc21 (stereo not drawn) [Compound 11, 4-amino-N-(6-((1-cyclopropyl-1H-pyrazol-4-yl)ethynyl)-2,3-dihydrobenzofuran-3-yl)-N,1,7-trimethyl-1H-pyrazolo[4,3-c]quinoline-8-carboxamide] | 62 | 3 | 185 |
| CN(C(=O)c1cc2c(cc1F)nc(N)c1cnn(C)c12)C1COc2cc(C#Cc3cnn(C4CC4)c3)ccc21 (stereo not drawn) [Compound 12, 4-amino-N-(6-((1-cyclopropyl-1H-pyrazol-4-yl)ethynyl)-2,3-dihydrobenzofuran-3-yl)-7-fluoro-N,1-dimethyl-1H-pyrazolo[4,3-c]quinoline-8-carboxamide] | 81 | 8 | 650 |
| CC(C)n1cc(C#Cc2ccc3c(c2)OCC3N(C)C(=O)c2cc3c(cc2F)nc(N)c2cnn(C)c23)cn1 (stereo not drawn) [Compound 13, 4-amino-7-fluoro-N-(6-((1-isopropyl-1H-pyrazol-4-yl)ethynyl)-2,3-dihydrobenzof uran-3-yl)-N,1-dimethyl-1H-pyrazolo[4,3-c]quinoline-8-carboxamide] | 55 | 11 | 607 |
| CCn1cc(C#Cc2ccc3c(c2)OCC3N(C)C(=O)c2cc3c(cc2F)nc(N)c2cnn(C)c23)cn1 (stereo not drawn) [Compound 17, 4-amino-N-(6-((1-ethyl-1H-pyrazol-4-yl)ethynyl)-2,3-dihydrobenzofuran-3-yl)-7-f luoro-N,1-dimethyl-1H-pyrazolo[4,3-c]quinoline-8-carboxamide] | 58 | 7 | 405 |
| CN(C(=O)c1cc2c(cc1Cl)nc(N)c1cnn(C)c12)C1COc2cc(C#Cc3ccn(C)n3)ccc21 (stereo not drawn) [Compound 18, 4-amino-7-chloro-N,1-dimethyl-N-(6-((1-methyl-1H-pyrazol-3-yl)ethynyl)-2,3-dihydrobenzofuran-3-yl)-1H-pyrazolo[4,3-c]quinoline-8-carboxamide] | 53 | 3 | 159 |
| CC(C)n1cc(C#Cc2ccc3c(c2)OCC3N(C)C(=O)c2ccc3nc(N)c4cnn(C)c4c3c2)cn1 (stereo not drawn) [Compound 19, 4-amino-N-(6-((1-isopropyl-1H-pyrazol-4-yl)ethynyl)-2,3-dihydrobenzofuran-3-yl)-N,1-dimethyl-1H-pyrazolo[4,3-c]quinoline-8-carboxamide] | 102 | 9.7 | 986 |
| CC(C)n1cc(C#Cc2ccc3c(c2)OC[C@H]3N(C)C(=O)c2ccc3nc(N)c4cnn(C)c4c3c2)cn1 [Compound 19A, (S)-4-amino-N-(6-((1-isopropyl-1H-pyrazol-4-yl)ethynyl)-2,3-dihydrobenzofuran-3-yl)-N,1-dimethyl-1H-pyrazolo[4,3-c]quinoline-8-carboxamide] | 149 | 8.7 | 1300 |
| CCn1cc(C#Cc2ccc3c(c2)OCC3N(C)C(=O)c2ccc3nc(N)c4cnn(C)c4c3c2)cn1 (stereo not drawn) [Compound 20, 4-amino-N-(6-((1-ethyl-1H-pyrazol-4-yl)ethynyl)-2,3-dihydrobenzofuran-3-yl)-N, 1-dimethyl-1H-pyrazolo[4,3-c]quinoline-8-carboxamide] | 97 | 9.8 | 948 |
| CCn1cc(C#Cc2ccc3c(c2)OC[C@H]3N(C)C(=O)c2ccc3nc(N)c4cnn(C)c4c3c2)cn1 [Compound 20A, (S)-4-amino-N-(6-((1-ethyl-1H-pyrazol-4-yl)ethynyl)-2,3-dihydrobenzofuran-3-yl)-N,1-dimethyl-1H-pyrazolo[4,3-c]quinoline-8-carboxamide] | 170 | 6.1 | 1040 |
| CN(C(=O)c1cc2c(cc1F)nc(N)c1cnn(C)c12)C1COc2cc(C#Cc3ccn(C)n3)ccc21 (stereo not drawn) [Compound 21, 4-amino-7-fluoro-N,1-dimethyl-N-(6-((1-methyl-1H-pyrazol-3-yl)ethynyl)-2,3-dihydrobenzofuran-3-yl)-1H-pyrazolo[4,3-c]quinoline-8-carboxamide] | 52 | 7 | 365 |
| CN(C(=O)c1cc2c(cc1F)nc(N)c1cnn(C)c12)[C@@H]1COc2cc(C#Cc3ccn(C)n3)ccc21 [Compound 21A, (S)-4-amino-7-fluoro-N,1-dimethyl-N-(6-((1-methyl-1H-pyrazol-3-yl)ethynyl)-2,3-dihydrobenzofuran-3-yl)-1H-pyrazolo[4,3-c]quinoline-8-carboxamide] | 86.3 | 2.7 | 233 |
| Cc1c(C#Cc2ccc3c(c2)OCC3N(C)C(=O)c2cc3c(cc2Cl)nc(N)c2cnn(C)c23)cnn1C (stereo not drawn) [Compound 22, 4-amino-7-chloro-N-(6-((1,5-dimethyl-1H-pyrazol-4-yl)ethynyl)-2,3-dihydrobenzofuran-3-yl)-N,1-dimethyl-1H-pyrazolo[4,3-c]quinoline-8-carboxamide] | 50 | 1.9 | 95 |
| Cc1c(C#Cc2ccc3c(c2)OC[C@H]3N(C)C(=O)c2cc3c(cc2Cl)nc(N)c2cnn(C)c23)cnn1C [Compound 22A, (S)-4-amino-7-chloro-N-(6-((1,5-dimethyl-1H-pyrazol-4-yl)ethynyl)-2,3-dihydrobenzofuran-3-yl)-N,1-dimethyl-1H-pyrazolo[4,3-c]quinoline-8-carboxamide] | 55 | 1 | 55 |
| Cc1c(C#Cc2ccc3c(c2)OCC3N(C)C(=O)c2cc3c(cc2F)nc(N)c2cnn(C)c23)cnn1C (stereo not drawn) [Compound 23, 4-amino-N-(6-((1,5-dimethyl-1H-pyrazol-4-yl)ethynyl)-2,3-dihydrobenzofuran-3-yl)-7-fluoro-N,1-dimethyl-1H-pyrazolo[4,3-c]quinoline-8-carboxamide] | 77 | 4 | 307 |
| CN(C(=O)c1cc2c(cc1F)nc(N)c1cnn(C)c12)C1COc2cc(C#Cc3cn(C)nc3Cl)ccc21 (stereo not drawn) [Compound 24, 4-amino-N-(6-((3-chloro-1-methyl-1H-pyrazol-4-yl)ethynyl)-2,3-dihydrobenzofuran-3-yl)-7-fluoro-N,1-dimethyl-1H-pyrazolo[4,3-c]quinoline-8-carboxamide] | 61 | 1.9 | 115 |
| Cc1nn(C)cc1C#Cc1ccc2c(c1)OCC2N(C)C(=O)c1cc2c(cc1F)nc(N)c1cnn(C)c12 (stereo not drawn) [Compound 25, 4-amino-N-(6-((1,3-dimethyl-1H-pyrazol-4-yl)ethynyl)-2,3-dihydrobenzofuran-3-yl)-7-fluoro-N,1-dimethyl-1H-pyrazolo[4,3-c]quinoline-8-carboxamide] | 100 | 4.7 | 471 |
